Source: patent publication EP2322149A1, “Methods and compositions for the treatment of ischemia” (Universidad del Pais Vasco, priority 2009, dated 2011)
Where “and” joins values, the source holds several entries; their conditions need not be identical. Equal entries are not always repeated. Entries after “also recorded” stand apart in the source; their conditions may differ.

What was measured:
optic nerve [1] = test: Compound action potential of isolated optic nerves perfused with ATP; design: species or system C57BL6 mice; conditions: ATP 10 mM, 3h (180 min), 37°C, compared to matched controls
[2] = tested on: optic nerve oligodendrocytes; test: Whole-cell recording of ischaemic inward current in cultured oligodendrocytes (chemical ischaemia); assay type: cell-based, Sprague-Dawley rats
Protocol: After 2-4 days in vitro, cultures were composed of at least 98% 04/Ga1C^+ cells. No microglial cells were detected in these cultures. […] Cell death was determined 24h later using calcein-AM (Invitrogen) as previously described (Matute et al., 1997 Proc Natl Acad Sci U S A 94:8830-8835.). Antagonists were present during in vitro ischaemia and during the next 24h incubation period. […] Calcein was used to quantify the number of cells within the reading field. Fluorescence was measured as above and values were plotted as the percentage of DCFDA/calcein red-orange fluorescence versus control. […] Molecular Probes). […] The changes in the membrane potential were calculated as the red (emission at 590)/green (emission at 520) ratio in each condition and results were normalized to control. Whole cell recordings were performed at room temperature and at a holding membrane potential of -70 mV. Extracellular bath solution with a pH of 7.3 contained (in mM): […] Patch clamp pipettes (3-5 MΩ) were filled with internal solution at a pH of 7.3 containing (in mM): CsCI 140, CaC12 2, MgC12 2, HEPES 10, EGTA 11, Na-ATP 2. For electrophysiology monitoring, ischaemia was induced chemically by using the glycolytic blocker iodoacetate (1 mM) and the oxidative phosphorylation inhibitor antimycin (2.5 μM), and omitting glucose because recordings were performed in an open chamber where O2 can diffuse to the cells (Káradóttir et al., 2005). Recordings of ATP currents were performed in divalent cation-free extracellular solutions, obtained by omitting Ca^2+ and Mg^2+, to potentiate P2X-mediated responses (Matute et al., 1997 Proc Natl Acad Sci U S A 94:8830-8835.). […] Molecular Probes, Inc., Eugene, OR) in culture medium for 30 min at 37 °C. Experiments were carried out in a coverslip chamber continuously perfused with a buffer containing 20 mM HEPES, 2 mM CaC12, 10 mM glucose in HBSS at 1 ml/min. The perfusion chamber was mounted on the stage of a Zeiss inverted epifluorescence microscope (Axiovert 35), equipped with a 150 W xenon lamp Polychrome IV (TILL Photonics GMBH) and a Plan Neofluar 40x oil immersion objective (Zeiss, Germany). Cells were visualized with a high resolution digital B/W CCD camera (ORCA; Hamamatsu Photonics Iberica, Barcelona, Spain) and image acquisition and data analysis were carried out using the AquaCosmos software program (Hamamatsu Photonics Iberica). Images were acquired every 30 ms at 37°C and ischaemia was induced as above. […] At the end of the assay, in situ calibration was carried out with the successive addition of […] and 2M Tris/50 mM EGTA, pH 8.5. Data were analyzed with Excel and Prism software.

[3] = tested on: optic nerve oligodendrocytes; test: Reactive oxygen species (DCFDA) after OGD in oligodendrocyte cultures; assay type: cell-based, Sprague-Dawley rats; conditions: 1 h OGD; BBG 50 nM, PPADS 100 µM
Protocol: (§1) Primary cultures of oligodendrocytes derived from optic nerves of 12 day-old Sprague-Dawley rats were obtained as previously described (Matute et al., 1997 Proc Natl Acad Sci U S A 94:8830-8835.).Cells were maintained at 37°C and 5% CO2 in a chemically defined medium (Matute et al., 1997 Proc Natl Acad Sci U S A 94:8830-8835.). After 2-4 days in vitro, cultures were composed of at least 98% 04/Ga1C^+ cells. No microglial cells were detected in these cultures. […] Cell death was determined 24h later using calcein-AM (Invitrogen) as previously described (Matute et al., 1997 Proc Natl Acad Sci U S A 94:8830-8835.). Antagonists were present during in vitro ischaemia and during the next 24h incubation period. […] Calcein was used to quantify the number of cells within the reading field. Fluorescence was measured as above and values were plotted as the percentage of DCFDA/calcein red-orange fluorescence versus control. The changes in mitochondrial membrane potential were monitored with 5,5',6,6'-tetrachloro-1,1',3,3'-tetraethylbenzimidazolcarbocyanine iodide (JC-1; Molecular Probes). […] The changes in the membrane potential were calculated as the red (emission at 590)/green (emission at 520) ratio in each condition and results were normalized to control.

[4] = tested on: optic nerve oligodendrocytes; test: Mitochondrial membrane potential (JC-1) after OGD in oligodendrocyte cultures; assay type: cell-based, Sprague-Dawley rats; conditions: 1 h OGD; BBG 50 nM, PPADS 100 µM
Protocol: as §1

[5] = tested on: optic nerve oligodendrocytes; test: Oxygen and glucose deprivation (OGD) cell death in oligodendrocyte cultures (calcein-AM); assay type: cell-based, Sprague-Dawley rats; conditions: 1h OGD, calcein 24h later; PPADS 100 µM, BBG 50 nM, CNQX 30 µM, APV 100 µM, apyrase 20 U/ml, ARL67156 100 µM, CBX 20 µM, FFA 100 µM, MFQ 1 nM
[6] = tested on: AMPA and kainate receptors; test: Glutamate receptor agonist (AMPA, kainate) induced oligodendrocyte death (calcein fluorescence); assay type: cell-based, Sprague-Dawley rats; conditions: AMPA (100 µM) + cyclothiazide (100 µM), or kainate (3 mM) + GYKI 53655 (50 µM); PPADS 100 µM, BBG 50 nM
Protocol: as §1

optic nerves = test: Optic nerve ischaemia (OGD), tissue damage by LDH release; design: species or system rats
Protocol: After 1h OGD at 37°C, the medium was replaced with fresh solution containing glucose and equilibrated with 95% O2, 5% CO2 and the nerves were incubated for another 2h at 37°C to simulate reperfusion.

optic nerve [7] = conditions: 60 min after 1 h OGD; BBG 50 nM, o-ATP 1 mM
P2X3 = target: T1, P2X3 (Homo sapiens, UniProt P56373); conditions: read-out: IC50 P2X3; cited from earlier work
T1 sequence (P56373 1-397): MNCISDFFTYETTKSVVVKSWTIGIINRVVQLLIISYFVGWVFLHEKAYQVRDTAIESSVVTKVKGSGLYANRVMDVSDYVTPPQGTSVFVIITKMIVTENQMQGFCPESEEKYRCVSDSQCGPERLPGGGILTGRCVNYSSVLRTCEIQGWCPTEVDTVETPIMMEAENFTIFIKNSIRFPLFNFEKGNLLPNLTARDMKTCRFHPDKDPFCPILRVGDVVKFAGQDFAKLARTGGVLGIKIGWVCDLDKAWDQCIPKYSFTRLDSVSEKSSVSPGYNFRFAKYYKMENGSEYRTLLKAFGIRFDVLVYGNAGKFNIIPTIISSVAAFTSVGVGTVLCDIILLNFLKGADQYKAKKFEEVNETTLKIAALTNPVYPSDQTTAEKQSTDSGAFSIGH

Pannexin hemichannels = conditions: cited from earlier work
P2X4 = target: T2, P2X4 (Homo sapiens, UniProt Q99571); conditions: read-out: IC50 P2X4; cited from earlier work
T2 sequence (Q99571 1-388): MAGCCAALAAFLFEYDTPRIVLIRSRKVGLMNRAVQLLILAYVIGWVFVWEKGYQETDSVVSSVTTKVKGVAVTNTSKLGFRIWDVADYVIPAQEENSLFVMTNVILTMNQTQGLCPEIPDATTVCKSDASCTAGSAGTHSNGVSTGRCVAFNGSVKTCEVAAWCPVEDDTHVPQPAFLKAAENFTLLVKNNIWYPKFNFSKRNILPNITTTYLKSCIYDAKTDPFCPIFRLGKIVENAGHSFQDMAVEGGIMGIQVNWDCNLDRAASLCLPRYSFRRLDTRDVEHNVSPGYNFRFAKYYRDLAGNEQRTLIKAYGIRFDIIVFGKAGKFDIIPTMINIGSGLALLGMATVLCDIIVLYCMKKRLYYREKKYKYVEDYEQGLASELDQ

Structure (SMILES): Nc1ncnc2c1ncn2[C@@H]1O[C@H](COP(=O)(O)OP(=O)(O)OP(=O)(O)O)[C@@H](O)[C@H]1O [ATP]
- reduction in CAP area (optic nerve [1]): 50% and 50.1 ± 10.5%

Structure (SMILES): CCOc1ccc(Nc2ccc(C(=C3C=CC(=[N+](CC)Cc4cccc(S(=O)(=O)[O-])c4)C=C3C)c3ccc(N(CC)Cc4cccc(S(=O)(=O)O)c4)cc3C)cc2)cc1 [BBG, Coomassie brilliant blue G]
- OGD-induced currents ([2]; BBG 50 nM, CNQX (30 µM) plus APV (100 µM) applied before the onset of ischemia): inhibited
- OGD currents after drug application versus OGD currents before drug application ([2]; after washing the antagonists out, average over BBG and PPADS, n= 15): 134 ± 32%
- ischaemic inward currents ([2]; chemical ischaemia (iodoacetate, antimycin, no glucose), -70 mV, PPADS 100 µM, oATP 1 mM, BBG 50 nM): significantly reduced; also recorded: partial block
- generation of radical oxygen species (ROS) [3]: prevented
- mitochondrial depolarization [4]: prevented
- OGD-induced oligodendrocyte cell death [5]: significantly reduced
- glutamate receptor-induced oligodendrocyte death [6]: did not significantly inhibit
- ischaemia-induced damage to optic nerves (LDH release) (optic nerves; P28 rat optic nerves, 1h OGD + 2h reperfusion, PPADS 1 mM, BBG 50 nM, oATP 1 mM, apyrase 20 U/ml, MFQ 1 µM, CBX 100 µM, FFA 1 mM): prevented; also recorded: reduced
- OGD-induced damage at all developmental stages (optic nerves; premyelinating (P7), myelinating (P14) and mature (P28) optic nerves): decreased; also recorded: protected
- recovery of axon function (CAP area) after the ischaemic insult (optic nerve [7]): significantly improved
- IC50 (P2X3): > 10 µM

Structure (SMILES): CC1(C)[C@@H](OC(=O)CCC(=O)O)CC[C@]2(C)[C@H]3C(=O)C=C4[C@@H]5C[C@@](C)(C(=O)O)CC[C@]5(C)CC[C@@]4(C)[C@]3(C)CC[C@@H]12 [Carbenoxolone disodium]
- IC50 (Pannexin hemichannels): ~5 µM

Structure (SMILES): O=C(Nc1cccc(C(=O)Nc2ccc(S(=O)(=O)O)c3cc(S(=O)(=O)O)cc(S(=O)(=O)O)c23)c1)Nc1cccc(C(=O)Nc2ccc(S(=O)(=O)O)c3cc(S(=O)(=O)O)cc(S(=O)(=O)O)c23)c1 [NF023]
- IC50 (P2X3): < 29 µM
- IC50 (P2X4): > 100 µM
